Experimental data as given in patent US20250100993A1, “2-SUBSTITUTED THIAZOLE HSD17B13 INHIBITORS AND USES THEREOF” (Inipharm, Inc., priority 2022, published 2025).

Biological target: HSD17B13 (Homo sapiens (Human), UniProt Q7Z5P4)
Experiment: LC/MS estrone detection assay for HSD17B13 activity (estradiol to estrone)
Type: biochemical
Details: estradiol substrate, LCMS; read-out: HSD17B13 Inhibition_Estradiol Substrate_LCMS: Ki
Description: The liquid chromatography/mass spectrometry (LC/MS) estrone detection assay monitors the conversion of estradiol to estrone by HSD17B13. This assay was undertaken in a 96 wp format (Eppendorf deep well Plate 96/500) in an 80 μl reaction volume containing: 4 μM of Estradiol (E2; Cayman; Ser. No. 10/006,315), 6 mM NAD+(Sigma; #N0623) and 30 nM HSD17B13 enzyme (in-house; E. coli expressed His-tagged, purified, soluble protein) in a reaction containing 1M potassium phosphate buffer pH 7.4, with 0.5% vehicle (DMSO). Reactions were incubated for 2 hours at 26.5° C., and estradiol (E2) conversion to estrone (E1) was quantitated by LC-MS/MS based analyte detection for both E2 and E1 using LCMS grade reagents.
Reactions were terminated by the addition of two volumes of acetonitrile (MeCN; LCMS grade; CAS #75/05/8) containing deuterated (D4)-E1 used as internal standard (Clear Synth; #CS-T-54273; 500 ng/mL final concentration). Samples were applied to pre-prepared Bond Elut-C18 extraction cartridges (3 mL; Agilent; Ser. No. 12/102,028), washed and eluted in MeCN. Eluates were dried under nitrogen and re-suspended in 60% methanol (LCMS grade methanol; CAS #67/56/1) before submission for analysis. Aqueous linearity for E2 and E1 were included for quantification.
Analysis of samples was undertaken on a XBridge BEH C18 column (Waters; #186003033) using 0.1% Diethyl Amine in MeCN (mobile phase A; DEA CAS #109-89-7) and 0.1% Diethyl Amine in milli-Q water (mobile phase B) in a 3 min gradient allowing 25% B. Analytes were detected in negative mode using MRM analysis, with E2 having a RT of 1.85 min and E1 having a RT of 2 min. Activity of the enzyme, in the absence of NAD+, was used to evaluate specificity of conversion. Enzyme activity in the presence of test samples was expressed as a percentage of the uninhibited enzyme activity, and plotted versus inhibitor concentration. Non-linear regression was performed using a four-parameter logistic model and GraphPad Prism software (GraphPad Software, La Jolla, CA). All assessments were undertaken in duplicate evaluations and pooled during extraction process and subsequently injected as duplicates for LC-MS/MS analysis.

Sequence of HSD17B13 (Q7Z5P4 20-300): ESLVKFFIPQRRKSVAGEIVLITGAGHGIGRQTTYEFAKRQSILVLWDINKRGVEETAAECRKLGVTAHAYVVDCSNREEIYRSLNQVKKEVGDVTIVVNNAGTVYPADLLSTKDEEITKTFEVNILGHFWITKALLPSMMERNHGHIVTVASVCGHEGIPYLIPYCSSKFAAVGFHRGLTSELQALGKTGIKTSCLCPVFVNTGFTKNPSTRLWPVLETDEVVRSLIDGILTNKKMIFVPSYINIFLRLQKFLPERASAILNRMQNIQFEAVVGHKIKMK

Row | Structure (SMILES) | Ki
1 | O=C(Nc1sc(N2CCS(=O)(=O)CC2)nc1C(=O)NCc1ccccc1C(F)(F)F)c1cc(Cl)c(O)c(Cl)c1 [Example 79, 5-(3,5-dichloro-4-hydroxybenzamido)-2-(1,1-dioxidothiomorpholino)-N-(2-(trifluoromethyl)benzyl)thiazole-4-carboxamide] | 100 to 500 nM
2 | O=C(Nc1sc(N2CCOCC2)nc1C(=O)NCc1ccccc1C(F)(F)F)c1cc(Cl)c(O)c(Cl)n1 [Example 80, 5-(4,6-dichloro-5-hydroxypicolinamido)-2-morpholino-N-(2-(trifluoromethyl)benzyl)thiazole-4-carboxamide] | 100 to 500 nM
3 | O=C(Nc1sc(C2CCOCC2)nc1C(=O)NCc1ccccc1C(F)(F)F)c1cc(Cl)c(O)c(Cl)n1 [Example 81, 5-(4,6-dichloro-5-hydroxypicolinamido)-2-(tetrahydro-2H-pyran-4-yl)-N-(2-(trifluoromethyl)benzyl)thiazole-4-carboxamide] | 100 to 500 nM
4 | O=C(Nc1sc(C2CCOCC2)nc1C(=O)NCc1ccccc1C(F)(F)F)c1cc(Cl)c(O)c(Cl)c1 [Example 82, 5-(3,5-dichloro-4-hydroxybenzamido)-2-(tetrahydro-2H-pyran-4-yl)-N-(2-(trifluoromethyl)benzyl)thiazole-4-carboxamide] | 100 to 500 nM
5 | O=C(Nc1sc(C2CCCCC2)nc1C(=O)NCc1ccccc1C(F)(F)F)c1cc(Cl)c(O)c(Cl)c1 [Example 83] | ≤ 50 nM
6 | O=C(Nc1sc(C2CCCCC2)nc1C(=O)NCc1ccccc1C(F)(F)F)c1cc(Cl)c(O)c(Cl)n1 [Example 84] | ≤ 50 nM
7 | CN1CC=C(c2nc(C(=O)NCc3ccccc3C(F)(F)F)c(NC(=O)c3cc(Cl)c(O)c(Cl)n3)s2)CC1 [Example 85, 5-(4,6-dichloro-5-hydroxypicolinamido)-2-(1-methyl-1,2,3,6-tetrahydropyridin-4-yl)-N-(2-(trifluoromethyl)benzyl) thiazole-4-carboxamide] | 100 to 500 nM
8 | CN1CCC(c2nc(C(=O)NCc3ccccc3C(F)(F)F)c(NC(=O)c3cc(Cl)c(O)c(Cl)n3)s2)CC1 [Example 86, 5-(4,6-dichloro-5-hydroxypicolinamido)-2-(1-methylpiperidin-4-yl)-N-(2-(trifluoromethyl)benzyl)thiazole-4-carboxamide] | 100 to 500 nM
9 | CN1CCC(c2nc(C(=O)NCc3ccccc3C(F)(F)F)c(NC(=O)c3cc(Cl)c(O)c(Cl)c3)s2)CC1 [Example 87] | 100 to 500 nM
10 | O=C(Nc1sc(-c2cc(CN3CCCC3)ccc2F)nc1C(=O)NCc1ccccc1C(F)(F)F)c1cc(F)c(O)c(Cl)c1 [Example 105, 5-(3-chloro-5-fluoro-4-hydroxybenzamido)-2-(2-fluoro-5-(pyrrolidin-1-ylmethyl)phenyl)-N-(2-(trifluoromethyl)benzyl)thiazole-4-carboxamide] | 50 to 100 nM
11 | O=C(Nc1sc(-c2ccccc2F)nc1C(=O)NCC12CC(C1)C2)c1cc(F)c(O)c(Cl)c1 [Example 106, N-(bicyclo[1.1.1]pentan-1-ylmethyl)-5-(3-chloro-5-fluoro-4-hydroxybenzamido)-2-(2-fluorophenyl)thiazole-4-carboxamide] | ≤ 50 nM
12 | O=C(Nc1sc(-c2ccccc2F)nc1C(=O)NCc1ccccc1C(F)(F)F)c1cc(Cl)c(O)c(F)n1 [Example 107, 5-(4-chloro-6-fluoro-5-hydroxypicolinamido)-2-(2-fluorophenyl)-N-(2-(trifluoromethyl)benzyl)thiazole-4-carboxamide] | ≤ 50 nM
